As a reminder, the IC50 is the concentration that gives 50% inhibition. Lower therefore signals higher potency.

The target in the test is T1, RORc ligand binding domain (Homo sapiens, UniProt P51449).
T1 construct: host or cells: E. coli
T1 sequence (P51449 269-508 limits assumed): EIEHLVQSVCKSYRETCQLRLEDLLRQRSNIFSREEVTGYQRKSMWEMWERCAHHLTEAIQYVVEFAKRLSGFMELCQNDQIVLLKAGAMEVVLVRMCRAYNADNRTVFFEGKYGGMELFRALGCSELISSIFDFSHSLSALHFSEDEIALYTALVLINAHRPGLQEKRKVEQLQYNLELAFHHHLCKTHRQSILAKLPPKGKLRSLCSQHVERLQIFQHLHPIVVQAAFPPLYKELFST
As to the kind of experiment: In vitro RORc ligand binding assay (25-[3H]hydroxycholesterol displacement, filter binding).

The compound `CC1(C)[C@H]2CC[C@]1([C@H]1CCCN(C(=O)c3cccnn3)C1)c1nnc(-c3c(F)cccc3F)cc12` [Compound 168, [3-[5-(2,6-difluorophenyl)-11,11-dimethyl-3,4-diazatricyclo[6.2.1.02,7]undeca-2,4,6-trien-1-yl]-1-piperidyl]-pyridazin-3-yl-methanone] gave a concentration for half-maximal inhibition (IC50) of 7.1 nM.

`CCO[C@@]12CC[C@@H](c3cc(-c4c(F)cccc4F)nnc31)C2(C)C` [Compound 7, (5S,8R)-3-(2,6-difluorophenyl)-8-ethoxy-9,9-dimethyl-5,6,7,8-tetrahydro-5,8-methanocinnoline] registered an IC50 of 9.3 nM.

Consider `CC1(C)[C@H]2CC[C@]1([C@H]1CCCN(C(=O)c3cnccn3)C1)c1nnc(-c3c(F)cccc3F)cc12` [Compound 132, [3-[5-(2,6-difluorophenyl)-11,11-dimethyl-3,4-diazatricyclo[6.2.1.02,7]undeca-2,4,6-trien-1-yl]-1-piperidyl]-pyrazin-2-yl-methanone], for which the IC50 came to 14 nM.

As to `CC[C@@H](O[C@@]12CC[C@@H](c3cc(-c4c(F)cccc4F)nnc31)C2(C)C)C(N)=O` [Compound 31, (R)-2-(((5S,8R)-3-(2,6-difluorophenyl)-9,9-dimethyl-5,6,7,8-tetrahydro-5,8-methanocinnolin-8-yl)oxy)butanamide], the IC50 was found to be 8.8 nM.

`CC1(C)[C@H]2CC[C@]1([C@@H]1CN(C(=O)c3ccc(=O)[nH]n3)CCO1)c1nnc(-c3c(F)cccc3F)cc12` [Compound 89, 6-((R)-2-((5R,8R)-3-(2,6-difluorophenyl)-9,9-dimethyl-5,6,7,8-tetrahydro-5,8-methanocinnolin-8-yl)morpholine-4-carbonyl)pyridazin-3(2H)-one] gave an IC50 of 237 nM.

In the case of `CC[C@@H](O[C@@]12CC[C@@H](c3cc(-c4c(F)cccc4F)nnc31)C2(C)C)C(=O)NCc1nnc(C)o1` [Compound 59, (R)-2-(((5S,8R)-3-(2,6-difluorophenyl)-9,9-dimethyl-5,6,7,8-tetrahydro-5,8-methanocinnolin-8-yl)oxy)-N-((5-methyl-1,3,4-oxadiazol-2-yl)methyl)butanamide], the IC50 was determined as 45.3 nM.

Turning to `CC[C@H](O[C@@]12CC[C@@H](c3cc(-c4c(F)cccc4F)nnc31)C2(C)C)C(=O)NCCS(C)(=O)=O` [Compound 26, (S)-2-(((5S,8R)-3-(2,6-difluorophenyl)-9,9-dimethyl-5,6,7,8-tetrahydro-5,8-methanocinnolin-8-yl)oxy)-N-(2-(methylsulfonyl)ethyl)butanamide], the IC50 was determined as 42.7 nM.

Regarding `CNC(=O)N1CCO[C@H]([C@@]23CC[C@@H](c4cc(-c5c(F)cccc5F)nnc42)C3(C)C)C1` [Compound 69, (R)-2-((5R,8R)-3-(2,6-difluorophenyl)-9,9-dimethyl-5,6,7,8-tetrahydro-5,8-methanocinnolin-8-yl)-N-methylmorpholine-4-carboxamide], the IC50 amounted to 37.7 nM.

As to `CC1(C)[C@H]2CC[C@]1(OCc1cnccn1)c1nnc(-c3c(F)cccc3F)cc12` [Compound 17, (5S,8R)-3-(2,6-difluorophenyl)-9,9-dimethyl-8-(pyrazin-2-ylmethoxy)-5,6,7,8-tetrahydro-5,8-methanocinnoline], the IC50 is 133 nM.

In turn, `CC1(C)[C@H]2CC[C@]1(Oc1cncc(C(=O)NCCO)n1)c1nnc(-c3c(F)cccc3F)cc12` [Compound 30, 6-(((5S,8R)-3-(2,6-difluorophenyl)-9,9-dimethyl-5,6,7,8-tetrahydro-5,8-methanocinnolin-8-yl)oxy)-N-(2-hydroxyethyl)pyrazine-2-carboxamide] came in with an IC50 of 836 nM.

In turn, `CC1(C)[C@H]2CC[C@]1([C@@H]1CN(c3ccccn3)CCO1)c1nnc(-c3c(F)cccc3F)cc12` [Compound 79, (R)-2-((5R,8R)-3-(2,6-difluorophenyl)-9,9-dimethyl-5,6,7,8-tetrahydro-5,8-methanocinnolin-8-yl)-4-(pyridin-2-yl)morpholine] had an IC50 of 412 nM. Compared with the last compound, the IC50 is about 2-fold lower.

For `CC1(C)[C@H]2CC[C@]1([C@@H]1CN(C(N)=O)CCO1)c1nnc(-c3c(F)cccc3F)cc12` [Compound 68, (R)-2-((5R,8R)-3-(2,6-difluorophenyl)-9,9-dimethyl-5,6,7,8-tetrahydro-5,8-methanocinnolin-8-yl)morpholine-4-carboxamide], the IC50 was determined as 56.8 nM.

Turning to `CC1(C)[C@H]2CC[C@]1([C@@H]1CN(c3ncn[nH]3)CCO1)c1nnc(-c3c(F)cccc3F)cc12` [Compound 155, 2-[5-(2,6-difluorophenyl)-11,11-dimethyl-3,4-diazatricyclo[6.2.1.02,7]undeca-2,4,6-trien-1-yl]-4-(1H-1,2,4-triazol-5-yl)morpholine], the IC50 was found to be 60 nM.

As for `CC[C@@H](C[C@@]12CC[C@@H](c3cc(-c4c(F)cccc4F)nnc31)C2(C)C)C(N)=O` [Compound 5, (S)-2-(((5R,8R)-3-(2,6-difluorophenyl)-9,9-dimethyl-5,6,7,8-tetrahydro-5,8-methanocinnolin-8-yl)methyl)butanamide], the IC50 was 67.4 nM.

Regarding `CC[C@H](O[C@@]12CC[C@@H](c3cc(-c4c(F)cccc4F)nnc31)C2(C)C)C(=O)NCCO` [Compound 23, (S)-2-(((5S,8R)-3-(2,6-difluorophenyl)-9,9-dimethyl-5,6,7,8-tetrahydro-5,8-methanocinnolin-8-yl)oxy)-N-(2-hydroxyethyl)butanamide], the IC50 worked out at 44.5 nM. This IC50 is about 1.5-fold lower than that of the compound before.

With `CC[C@@H](O[C@@]12CC[C@@H](c3cc(-c4c(F)cccc4F)nnc31)C2(C)C)C(=O)NCC(C)(C)O` [Compound 52, (R)-2-(((5S,8R)-3-(2,6-difluorophenyl)-9,9-dimethyl-5,6,7,8-tetrahydro-5,8-methanocinnolin-8-yl)oxy)-N-(2-hydroxy-2-methylpropyl)butanamide], the IC50 was 49.5 nM.

`C[C@H](O[C@@]12CC[C@@H](c3cc(-c4c(F)cccc4F)nnc31)C2(C)C)C(N)=O` [Compound 43, (S)-2-(((5S,8R)-3-(2,6-difluorophenyl)-9,9-dimethyl-5,6,7,8-tetrahydro-5,8-methanocinnolin-8-yl)oxy)propanamide]: the IC50 turned out to be 300 nM.

As for `Cc1nnc(CO[C@@]23CC[C@@H](c4cc(-c5c(F)cccc5F)nnc42)C3(C)C)o1` [Compound 8, 2-((((5S,8R)-3-(2,6-difluorophenyl)-9,9-dimethyl-5,6,7,8-tetrahydro-5,8-methanocinnolin-8-yl)oxy)methyl)-5-methyl-1,3,4-oxadiazole], the IC50 turned out to be 140 nM.

`CC1(C)[C@H]2CC[C@]1([C@H]1CN(Cc3ccccc3)CCO1)c1nnc(-c3c(F)cccc3F)cc12` [Compound 61, (S)-4-benzyl-2-((5R,8R)-3-(2,6-difluorophenyl)-9,9-dimethyl-5,6,7,8-tetrahydro-5,8-methanocinnolin-8-yl)morpholine] yielded a half-inhibitory concentration (IC50) of 172 nM.

In turn, `CC1(C)[C@H]2CC[C@]1([C@H]1CNCCO1)c1nnc(-c3c(F)cccc3F)cc12` [Compound 70, (S)-2-((5R,8R)-3-(2,6-difluorophenyl)-9,9-dimethyl-5,6,7,8-tetrahydro-5,8-methanocinnolin-8-yl)morpholine] yielded a half-maximal inhibitory concentration (IC50) of 367 nM.

The compound `CC1(C)[C@H]2CC[C@]1([C@H]1CCCN(c3cccnn3)C1)c1nnc(-c3c(F)cccc3F)cc12` [Compound 169, 5-(2,6-difluorophenyl)-11,11-dimethyl-1-(1-pyridazin-3-yl-3-piperidyl)-3,4-diazatricyclo[6.2.1.02,7]undeca-2,4,6-triene] registered an IC50 of 40 nM.

`CC1(C)[C@H]2CC[C@]1([C@H]1CN(S(C)(=O)=O)CCO1)c1nnc(-c3c(F)cccc3F)cc12` [Compound 73, (S)-2-((5R,8R)-3-(2,6-difluorophenyl)-9,9-dimethyl-5,6,7,8-tetrahydro-5,8-methanocinnolin-8-yl)-4-(methylsulfonyl)morpholine] yielded an IC50 of 1030 nM.

On to `CC[C@@H](O[C@@]12CC[C@@H](c3cc(-c4c(F)cccc4F)nnc31)C2(C)C)c1nc[nH]n1` [Compound 40, (5S,8R)-8-((R)-1-(1H-1,2,4-triazol-3-yl)propoxy)-3-(2,6-difluorophenyl)-9,9-dimethyl-5,6,7,8-tetrahydro-5,8-methanocinnoline], for which the IC50 came out at 50.1 nM.

`CC(C)(C)OC(=O)N1CCN[C@H]([C@@]23CC[C@@H](c4cc(-c5c(F)cccc5F)nnc42)C3(C)C)C1` (single isomer, unassigned) [Compound 114, tert-butyl 3-[5-(2,6-difluorophenyl)-11,11-dimethyl-3,4-diazatricyclo[6.2.1.02,7]undeca-2,4,6-trien-1-yl]piperazine-1-carboxylate]: the IC50 was 420 nM. Against the preceding compound, the IC50 is about 8.4-fold higher.

For the compound `CC1(C)[C@H]2CC[C@]1([C@@H]1CN(C(N)=O)CCN1)c1nnc(-c3c(F)cccc3F)cc12` [Compound 184, 3-[5-(2,6-difluorophenyl)-11,11-dimethyl-3,4-diazatricyclo[6.2.1.02,7]undeca-2,4,6-trien-1-yl]piperazine-1-carboxamide], the IC50 worked out at 29 nM.

On to `CCNC(=O)N1CCC[C@H]([C@@]23CC[C@@H](c4cc(-c5c(F)cccc5F)nnc42)C3(C)C)C1` [Compound 136, 3-[5-(2,6-difluorophenyl)-11,11-dimethyl-3,4-diazatricyclo[6.2.1.02,7]undeca-2,4,6-trien-1-yl]-N-ethyl-piperidine-1-carboxamide], for which the IC50 was 29 nM.

Compound `CC1(C)[C@H]2CC[C@]1(Oc1nccnc1C(=O)NCCO)c1nnc(-c3c(F)cccc3F)cc12` [Compound 18, 3-(((5S,8R)-3-(2,6-difluorophenyl)-9,9-dimethyl-5,6,7,8-tetrahydro-5,8-methanocinnolin-8-yl)oxy)-N-(2-hydroxyethyl)pyrazine-2-carboxamide] gave an IC50 of 340 nM.

In turn, `CC1(C)[C@H]2CC[C@]1(OCc1ncccn1)c1nnc(-c3c(F)cccc3F)cc12` [Compound 13, (5S,8R)-3-(2,6-difluorophenyl)-9,9-dimethyl-8-(pyrimidin-2-ylmethoxy)-5,6,7,8-tetrahydro-5,8-methanocinnoline] showed an IC50 of 515 nM.
